Patent US20110046108A1, “PYRIMIDINE DERIVATIVES” (AstraZeneca AB, priority 2006, published 2011)
Where two headings read alike, the source gives them in different places.

Assays:
[1] = target: T1, EphB4 (Homo sapiens, UniProt P54760); assay: In vitro EphB4 cell assay (Assay B, EphB4 phosphorylation ELISA in EphB4-CHO cells); type: cell-based
T1 construct: to generate full-length EphB4 containing a Myc-His tag at the C-terminus; expressed in transfected cells; host or cells: CHO-K1 (EphB4-CHO)

[2] = target: T2, c-Src kinase (Homo sapiens, UniProt P12931); assay: Src in vitro enzyme assay (Assay C, ELISA); type: biochemical; settings: 2.2 μM ATP
T2 construct: purchased Upstate 14-117
Protocol: The ability of test compounds to inhibit the phosphorylation of a tyrosine containing polypeptide substrate by the enzyme c-Src kinase was assessed using a conventional ELISA assay with a colorimetric endpoint.
Each well of Matrix 384-well plates (Matrix, Brooke Park, Wilmslow, Cheshire, SK9 3LP, UK, Catalogue No. 4311) were coated overnight at 4° C. with 40 μl of 10 ug/ml stock of synthetic polyamino acid pEAY substrate (Sigma-Aldrich Company Ltd, Gillingham, Dorset, SP8 4XT, UK, Catalogue No. P3899) in phosphate buffered saline (PBS). Immediately prior to the assay, the plates were washed with 100 μl/well of PBS containing Tween-20 and then with 50 mM HEPES pH7.4.
Test compounds were prepared as 10 mM stock solutions in DMSO (Sigma-Aldrich Company Ltd, Gillingham, Dorset, SP8 4XT, UK, Catalogue No.154938) and serially diluted with 10% DMSO to give a range of test concentrations at 4× the required final concentration. […]
The plates were washed three times with 100 μl/well of PBS-Tween20 and then 40 μl of a PBS-Tween20 and 0.5% BSA solution containing 4G10-HRP anti-phosphotyrosine antibody (Upstate, Catalogue No 16-105) added to each well. […] The reaction was then stopped with the addition of 20 μl/well 2M sulphuric acid and the absorbances determined at 450 nm using a plate reading spectrophotometer. […]

[3] = target: T3, recombinant EphB4 (Homo sapiens, UniProt P54760); assay: In vitro EphB4 enzyme assay (Assay A, Alphascreen); type: biochemical; settings: 4 μM ATP
T3 construct: recombinant active EphB4 (amino acids 563-987; Swiss-Prot Acc; No. P54760); purchased ProQinase GmbH 0178-0000-3
T3 sequence (P54760 563-987): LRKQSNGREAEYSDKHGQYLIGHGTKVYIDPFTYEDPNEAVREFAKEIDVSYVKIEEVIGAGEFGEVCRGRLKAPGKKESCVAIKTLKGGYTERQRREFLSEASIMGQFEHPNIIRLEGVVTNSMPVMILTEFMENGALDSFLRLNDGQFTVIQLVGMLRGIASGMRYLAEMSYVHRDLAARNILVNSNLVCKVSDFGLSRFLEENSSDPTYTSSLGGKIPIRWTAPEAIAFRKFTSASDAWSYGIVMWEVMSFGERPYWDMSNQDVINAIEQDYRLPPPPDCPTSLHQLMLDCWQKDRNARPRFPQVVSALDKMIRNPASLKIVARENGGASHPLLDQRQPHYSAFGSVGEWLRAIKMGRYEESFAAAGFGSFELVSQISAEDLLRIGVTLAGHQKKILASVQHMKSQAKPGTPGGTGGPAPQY
Protocol: This assay detects inhibitors of EphB4-mediated phosphorylation of a polypeptide substrate using Alphascreen™ luminescence detection technology. Briefly, recombinant EphB4 was incubated with a biotinylated-polypeptide substrate (biotin-poly-GAT) in presence of magnesium-ATP. The reaction was stopped by addition of EDTA, together with streptavidin-coated donor beads which bind the biotin-substrate containing any phosphorylated tyrosine residues. Anti-phosphotyrosine antibodies present on acceptor beads bind to phosphorylated substrate, thus bringing the donor & acceptor beads into close proximity. Subsequent excitation of the donor beads at 680 nm generated singlet oxygen species that interact with a chemiluminescer on the acceptor beads, leading to light emission at 520-620 nm. The signal intensity is directly proportional to the level of substrate phosphorylation and thus inhibition is measured by a decrease in signal.
Test compounds were prepared as 10 mM stock solutions in DMSO (Sigma-Aldrich Company Ltd, Gillingham, Dorset SP8 4XT Catalogue No.154938) and serially diluted with 5% DMSO to give a range of test concentrations at 6× the required final concentration. […]
The resulting assay signal was determined on the Perkin Elmer EnVision plate reader. […]

[4] = mean values, Table A, read-out: Mean IC50 (μM) obtained using Assay B

T1 sequence (P54760 16-987): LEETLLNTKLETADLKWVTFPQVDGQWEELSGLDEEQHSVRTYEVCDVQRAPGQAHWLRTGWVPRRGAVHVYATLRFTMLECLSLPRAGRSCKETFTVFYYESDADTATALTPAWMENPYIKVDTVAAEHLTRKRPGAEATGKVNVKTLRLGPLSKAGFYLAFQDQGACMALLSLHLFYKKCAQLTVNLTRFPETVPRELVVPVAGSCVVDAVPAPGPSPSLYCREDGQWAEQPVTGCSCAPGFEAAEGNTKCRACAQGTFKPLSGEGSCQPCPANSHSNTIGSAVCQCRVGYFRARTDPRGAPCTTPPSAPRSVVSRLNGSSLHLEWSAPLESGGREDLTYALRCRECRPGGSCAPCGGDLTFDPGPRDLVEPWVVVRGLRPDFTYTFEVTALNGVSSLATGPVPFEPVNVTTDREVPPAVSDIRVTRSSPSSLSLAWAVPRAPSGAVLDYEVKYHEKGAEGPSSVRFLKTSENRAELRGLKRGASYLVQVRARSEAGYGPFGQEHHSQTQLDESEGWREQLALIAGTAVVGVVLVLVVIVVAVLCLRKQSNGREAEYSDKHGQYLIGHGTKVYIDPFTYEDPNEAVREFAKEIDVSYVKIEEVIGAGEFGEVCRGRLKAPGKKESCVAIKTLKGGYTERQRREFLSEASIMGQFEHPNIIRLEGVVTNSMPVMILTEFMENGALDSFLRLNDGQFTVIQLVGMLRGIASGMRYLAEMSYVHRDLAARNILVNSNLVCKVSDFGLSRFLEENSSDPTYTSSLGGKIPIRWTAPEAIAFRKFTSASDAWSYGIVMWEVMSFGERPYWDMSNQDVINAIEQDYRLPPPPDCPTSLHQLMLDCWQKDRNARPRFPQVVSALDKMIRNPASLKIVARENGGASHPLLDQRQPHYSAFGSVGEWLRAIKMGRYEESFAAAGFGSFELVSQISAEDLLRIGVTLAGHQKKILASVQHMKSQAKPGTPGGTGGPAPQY
T2 sequence (P12931 whole entry): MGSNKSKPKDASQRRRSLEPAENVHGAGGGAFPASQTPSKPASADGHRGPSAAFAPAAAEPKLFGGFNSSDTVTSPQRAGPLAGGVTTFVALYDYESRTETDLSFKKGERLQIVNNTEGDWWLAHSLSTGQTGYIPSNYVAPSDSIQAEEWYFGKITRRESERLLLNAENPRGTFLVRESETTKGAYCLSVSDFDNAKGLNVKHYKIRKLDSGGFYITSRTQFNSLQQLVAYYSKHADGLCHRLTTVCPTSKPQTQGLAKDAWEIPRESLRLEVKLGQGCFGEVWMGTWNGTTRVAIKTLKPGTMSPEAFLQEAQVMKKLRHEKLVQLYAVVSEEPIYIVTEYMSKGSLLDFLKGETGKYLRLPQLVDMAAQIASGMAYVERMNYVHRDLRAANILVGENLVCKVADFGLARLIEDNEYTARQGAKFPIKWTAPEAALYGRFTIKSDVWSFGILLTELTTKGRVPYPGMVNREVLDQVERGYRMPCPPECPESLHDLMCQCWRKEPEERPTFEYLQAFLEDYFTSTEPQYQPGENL

IC50 [1, 4] [µM] | SMILES | other results
1.08 | COc1cc(Nc2nccc(Nc3cccc4c3OCO4)n2)cc(OC)c1 [Compound 258, N′-benzo[1,3]dioxol-4-yl-N-(3,5-dimethoxyphenyl) pyrimidine-2,4-diamine] | –
0.23 | CC(=O)Nc1cc(Nc2nccc(Nc3cccc4[nH]ncc34)n2)ccc1C [Compound 293, N-[5-[[4-(1H-indazol-4-ylamino)pyrimidin-2-yl]amino]-2-methyl-phcnyl] acetamide] | –
0.14 | CN(c1ccnc(Nc2cccc(NS(C)(=O)=O)c2)n1)c1c(Cl)ccc2c1OCO2 [Compound 219, N-[3-[[4-[(5-chlorobenzo [1,3]dioxol-4-yl)-methyl-amino]pyrimidin-2-yl]amino]phenyl]methane sulfonamide] | –
0.13 | N#Cc1cccc(Nc2nccc(N(CCO)c3c(Cl)ccc4c3OCO4)n2)c1 [Compound 241, 3-[[4-[(5-chlorobenzo [1,3]dioxol-4-yl)-(2-hydroxyethyl)amino]pyrimidin-2-yl]amino] benzonitrile] | –
0.19 | CS(=O)(=O)Nc1cccc(Nc2nccc(N(CC#N)c3c(Cl)ccc4c3OCO4)n2)c1 [Compound 227] | –
– | Clc1ccc2c(c1Nc1ccnc(Nc3ccc4ncsc4c3)n1)OCO2 [Compound 59, N~2~-1,3-benzothiazol-6-yl-N~4~-(5-chloro-1,3-benzodioxol-4-yl)pyrimidine-2,4-diamine] | IC50 [2]: 330 nM; IC50 [3]: 460 nM; IC50 ([1]; ephrin-B2 stimulated EphB4 phosphorylation, read-out: IC50 in assay B): 1.25 µM
